Source: US20250353891A1 (MEDIMMUNE LIMITED, priority 2022, published 2025)
pEC50: −log10 of the molar value. Starred links: 1 amine or outer side, 2 acyl side, 3 side chain; linkers in the order of their positions; H or OH if unused. Non-standard residues stand in square brackets, D forms with d. Residues, ends and D or L forms follow the SMILES beside them. Groups on a side chain read outwards from the residue. *: point of attachment. C20 diacid = O=C(O)CCCCCCCCCCCCCCCCCCC(=O)*; C18 diacid = O=C(O)CCCCCCCCCCCCCCCCC(=O)*; γGlu = O=C(O)[C@H](CCC(=O)[*:2])N[*:1]; αMeF = C[C@](N)(Cc1ccccc1)C(=O)O; AEEA = NCCOCCOCC(=O)O; Aib = CC(C)(N)C(=O)O

Assays:
[1] = molecular target: human GLP-1 receptor (hGLP-1R) (Homo sapiens, UniProt P43220); test: cAMP production (HTRF) in CHO cells expressing hGLP-1R; assay type: cell-based; parameters: expressed in transfected cells; settings: for pEC50: Table 6, peptides modified at position 17, cAMP in CHO hGLP-1R cells, geometric mean, read-out: hGLP-1R EC50; for % Relative Potency Ratio: Table 6, % GLP-1R activity relative to GLP-1 / % GlucR activity relative to glucagon
Outline: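 Cells were resuspended in assay buffer at batch-optimized density, typically 1×10^5 cells/mL for hGLP-1R and 2×10^5 cells/mL for hGCGR. After 30 min incubation at room temperature with compound, cAMP was measured by two-step HTRF. EC50 values came from 4-parameter logistic fits of % Delta F.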

[2] = molecular target: human glucagon receptor (hGCGR) (Homo sapiens, UniProt P47871); test: cAMP production (HTRF) in CHO cells expressing hGCGR; assay type: cell-based; parameters: expressed in transfected cells; settings: Table 6, peptides modified at position 17; cAMP in CHO hGCGR cells; geometric mean; read-out: hGluc-R EC50
Experimental: Cells were re-suspended in assay buffer at a batch-dependent optimized concentration (typically hGLP-1R cells at 1×10^5 cells/mL, hGCGR cells at 2×10^5 cells/mL).
Cells were added to the assay plate using a multidrop dispenser and incubated at room temperature for 30 minutes before measuring the cAMP level using a cAMP dynamic 2 homogeneous time resolved Fluorescence (HTRF) kit (Cisbio Bioassays #62AM4PEJ) following the two-step protocol as per manufacturer's recommendations. In brief, anti-cAMP cryptate (donor fluorophore) and cAMP-d2 (acceptor fluorophore) were made up separately by diluting each 1 in 20 in conjugate and lysis buffer provided in the kit. Anti-CAMP cryptate was added to all wells of the assay plate, followed by cAMP-d2 added to all wells except non-specific binding (NSB) wells (to which conjugate and lysis buffer was added).
Data was transformed to % Delta F as described in the manufacturer's guidelines and analyzed by 4-parameter logistic fit to determine EC50 values.

human glucagon receptor (hGCGR), sequence (P47871 26-477): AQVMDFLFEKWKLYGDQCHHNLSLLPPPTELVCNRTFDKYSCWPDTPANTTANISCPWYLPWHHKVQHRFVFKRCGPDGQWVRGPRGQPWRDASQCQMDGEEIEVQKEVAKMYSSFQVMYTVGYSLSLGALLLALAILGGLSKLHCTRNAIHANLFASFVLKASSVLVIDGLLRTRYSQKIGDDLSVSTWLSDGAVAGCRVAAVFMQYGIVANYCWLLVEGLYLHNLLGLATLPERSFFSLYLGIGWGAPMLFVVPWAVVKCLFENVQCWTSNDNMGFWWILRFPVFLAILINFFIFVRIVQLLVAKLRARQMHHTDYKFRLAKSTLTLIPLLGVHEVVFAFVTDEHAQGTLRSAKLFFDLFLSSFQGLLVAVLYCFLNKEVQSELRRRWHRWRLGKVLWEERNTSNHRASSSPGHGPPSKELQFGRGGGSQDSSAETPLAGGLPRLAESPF
human GLP-1 receptor (hGLP-1R), sequence (P43220 24-463): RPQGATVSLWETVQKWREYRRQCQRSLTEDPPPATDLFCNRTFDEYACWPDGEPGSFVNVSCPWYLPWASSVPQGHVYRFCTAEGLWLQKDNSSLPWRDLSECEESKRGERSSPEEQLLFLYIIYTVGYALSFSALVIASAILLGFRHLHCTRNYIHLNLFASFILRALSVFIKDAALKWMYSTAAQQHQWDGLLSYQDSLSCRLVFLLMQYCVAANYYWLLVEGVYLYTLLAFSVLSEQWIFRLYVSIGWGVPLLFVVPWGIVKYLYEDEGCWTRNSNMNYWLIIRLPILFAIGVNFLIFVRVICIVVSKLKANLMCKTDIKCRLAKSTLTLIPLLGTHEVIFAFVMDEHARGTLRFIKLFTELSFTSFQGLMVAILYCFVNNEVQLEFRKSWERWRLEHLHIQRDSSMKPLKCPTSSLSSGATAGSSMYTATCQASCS

| pEC50 [1] | % Relative Potency Ratio [1] | pEC50 [2] | Compound |
| --- | --- | --- | --- |
| 10.03 | 9.7 | 9.34 | CC[C@H](C)[C@H](NC(=O)C(C)(C)NC(=O)[C@H](CCC(N)=O)NC(=O)[C@@H](NC(=O)[C@](C)(Cc1ccccc1)NC(=O)[C@H](CC(=O)O)NC(=O)[C@H](CCCNC(=N)N)NC(=O)[C@H](C)NC(=O)[C@H](C)NC(=O)[C@H](CCCCNC(=O)COCCOCCNC(=O)COCCOCCNC(=O)CC[C@H](NC(=O)CC[C@H](NC(=O)CCCCCCCCCCCCCCCCCCC(=O)O)C(=O)O)C(=O)O)NC(=O)[C@H](CO)NC(=O)[C@H](CC(=O)O)NC(=O)[C@H](CC(C)C)NC(=O)[C@](C)(Cc1ccccc1)NC(=O)[C@H](CCCCN)NC(=O)[C@H](CO)NC(=O)[C@@H](NC(=O)[C@H](CC(=O)O)NC(=O)[C@H](CO)NC(=O)[C@@H](NC(=O)[C@](C)(Cc1ccccc1)NC(=O)[C@H](CO)NC(=O)CNC(=O)[C@H](Cc1c[nH]cn1)NC(=O)C(C)(C)NC(=O)[C@@H](N)Cc1c[nH]cn1)[C@@H](C)O)C(C)C)C(C)C)C(=O)N[C@@H](C)C(=O)N[C@@H](CC(N)=O)C(=O)N[C@H](C(N)=O)[C@@H](C)O [Peptide 14] (H-H[Aib]HGS[αMeF]TSDVSK[αMeF]LDSK([AEEA-AEEA-γGlu-γGlu-C20 diacid])AARD[αMeF]VQ[Aib]IANT-NH2; N-terminus assumed) |
| 10.48 | 6.3 | 9.98 | CC[C@H](C)[C@H](NC(=O)C(C)(C)NC(=O)[C@H](C)NC(=O)[C@@H](NC(=O)[C@](C)(Cc1ccccc1)NC(=O)[C@H](CC(=O)O)NC(=O)[C@H](CCCNC(=N)N)NC(=O)[C@H](C)NC(=O)[C@H](C)NC(=O)[C@H](CCCCNC(=O)COCCOCCNC(=O)COCCOCCNC(=O)CC[C@H](NC(=O)CCCCCCCCCCCCCCCCC(=O)O)C(=O)O)NC(=O)[C@H](CO)NC(=O)[C@H](CC(=O)O)NC(=O)[C@H](CC(C)C)NC(=O)[C@](C)(Cc1ccccc1)NC(=O)[C@H](CCCCN)NC(=O)[C@H](CO)NC(=O)[C@@H](NC(=O)[C@H](CC(=O)O)NC(=O)[C@H](CO)NC(=O)[C@@H](NC(=O)[C@](C)(Cc1ccccc1)NC(=O)[C@H](CO)NC(=O)CNC(=O)[C@H](Cc1c[nH]cn1)NC(=O)C(C)(C)NC(=O)[C@@H](N)Cc1c[nH]cn1)[C@@H](C)O)C(C)C)[C@@H](C)CC)C(=O)N[C@@H](C)C(=O)N[C@@H](CC(N)=O)C(=O)N[C@H](C(N)=O)[C@@H](C)O [Peptide 16] (H-H[Aib]HGS[αMeF]TSDVSK[αMeF]LDSK([AEEA-AEEA-γGlu-C18 diacid])AARD[αMeF]IA[Aib]IANT-NH2; N-terminus assumed) |
| 10.35 | 5.9 | 9.87 | CC[C@H](C)[C@H](NC(=O)[C@H](CO)NC(=O)[C@H](CCC(=O)O)NC(=O)[C@@H](NC(=O)[C@](C)(Cc1ccccc1)NC(=O)[C@H](CC(=O)O)NC(=O)[C@H](CCCNC(=N)N)NC(=O)[C@H](C)NC(=O)[C@H](C)NC(=O)[C@H](CCCCNC(=O)COCCOCCNC(=O)COCCOCCNC(=O)CC[C@H](NC(=O)CCCCCCCCCCCCCCCCC(=O)O)C(=O)O)NC(=O)[C@H](CO)NC(=O)[C@H](CC(=O)O)NC(=O)[C@H](CC(C)C)NC(=O)[C@](C)(Cc1ccccc1)NC(=O)[C@H](CCCCN)NC(=O)[C@H](CO)NC(=O)[C@@H](NC(=O)[C@H](CC(=O)O)NC(=O)[C@H](CO)NC(=O)[C@@H](NC(=O)[C@](C)(Cc1ccccc1)NC(=O)[C@H](CO)NC(=O)CNC(=O)[C@H](Cc1c[nH]cn1)NC(=O)C(C)(C)NC(=O)[C@@H](N)Cc1c[nH]cn1)[C@@H](C)O)C(C)C)C(C)C)C(=O)N[C@@H](C)C(=O)N[C@@H](CC(N)=O)C(=O)N[C@H](C(N)=O)[C@@H](C)O [Peptide 17] (H-H[Aib]HGS[αMeF]TSDVSK[αMeF]LDSK([AEEA-AEEA-γGlu-C18 diacid])AARD[αMeF]VESIANT-NH2; N-terminus assumed) |
